The format of series [1] is in vitro ADME. As to conditions: BNPP 1 mM, 2 h preincubation; SH-11037 1 µM, mouse eye homogenate, 1 min. On the procedure: (§1) Chemical inhibition assay was conducted in mouse, dog, and human plasma and mouse eye homogenate to identify the enzyme(s) involved in the hydrolysis of SH-11037. BW284c51 [16], DTNB [17], EPZ [18], and BNPP [19, 20] were used as selective inhibitors of acetylcholinesterase (AChE), paraoxonase 1 (PON1), butyrylcholinesterase (BchE), and carboxylesterase (CES), respectively. Mouse eyes (male ICR mouse, 8 weeks old) taken immediately after CO2 asphyxiation were homogenized by an electric tissue homogenizer (Tissue Master-125, Omni International, Kennesaw, GA, USA) in an equal amount of 0.1 M potassium phosphate buffer (pH 7.4) on ice. The resulting homogenate was then centrifuged at 3000× g for 20 min. The supernatant was stored at −80 °C until the experiment. DMSO stock solutions of the inhibitors (0.4, 4 and 40 mM) were mixed with plasma diluted 3-fold with 0.1 M phosphate buffer (pH 7.4) to a final volume of 160 μL and final inhibitor concentrations of 0.01, 0.1, and 1 mM. The supernatant of mouse eye homogenate was treated similarly with only BNPP as the inhibitor and a single inhibitor concentration of 1 mM. The resulting pre-incubation solutions were then incubated for 2 h at 37 °C in a shaking water bath. SH-11037 (40 μM) in 50 vol% aqueous CH3CN was mixed with the pre-incubation solutions to a final volume of 160 μL and a final concentration of 1 μM. The resulting solutions were then incubated at 37 °C in a shaking water bath. The incubations were terminated at selected times by adding 160 µL of ice-cold CH3CN containing glipizide (500 ng/mL) as the IS. The resulting mixture was vortexed, sonicated, and centrifuged at 3000× g for 20 min. Aliquots of the supernatant were subjected to LC-MS/MS analysis described below in Section 2.6.2.
(§2) The LC-MS/MS system consisted of Agilent 1290 Infinity HPLC system and Agilent 6530 Accurate-Mass Quadrupole Time-of-Flight (Q-TOF) mass spectrometer equipped with dual AJS ESI ion source (Agilent Technologies Korea, Seoul, Korea). Chromatographic separation was performed on an Agilent Eclipse Plus C18 column (2.1 × 100 mm, 3.5 μm) with a Phenomenex Security Guard C18 guard column (4 × 20 mm) maintained at 40 °C. The mobile phase consisted of 0.1% formic acid in deionized water (A) and 0.1% formic acid in CH3CN (B): 0~2 min 5% B, 2~7 min to 95% B, and 7~10 min 95% B. Total run time including a 5 min equilibration time was 15 min. The flow rate was 0.4 mL/min. The injection volume was 5 µL. The mass spectrometer was operated in a positive Auto MS/MS scan mode with a full scan mass range of m/z 100–1000, fragmentor voltage 150 V, and CE 30 eV, selecting the two most intense precursor ions for collision-induced dissociation. Putative metabolites were identified using Agilent Mass Hunter Metabolite ID software (ver.B.04.00) followed by manual interpretation of the spectral data. Chromatograms and mass spectra were extracted using Agilent Mass Hunter Qualitative Analysis software (ver. B.05.00).

In series [2] the test system is hydrolysis of SH-11037 in mouse plasma. The class given is in vitro ADME. The conditions noted are these: inhibitor 1 mM; SH-11037 1 µM, mouse plasma, 1 min, 37 °C. The protocol: as §1, §2
On the set-up of series [3]: method as in PMID 30713251. As to conditions: cited from earlier work.

Molecules are shown by their SMILES.

`O=[N+]([O-])c1ccc(OP(=O)(O)Oc2ccc([N+](=O)[O-])cc2)cc1` [BNPP, bis(4-nitrophenyl)phosphate, reference compound]: the “effect of inhibitor on SH-11037 hydrolysis” value in series [1] was “inhibited the hydrolysis nearly completely”. In addition, the “SH-11008 Formation (%) in presence of inhibitor” value in series [2] is given as “completely inhibited”.

As to `COc1ccc(CC2COc3cc(O)c(OC)c(O)c3C2=O)cc1O` (stereo not shown) [cremastranone, Cremastranone], in series [3], the oral absorption entry is on record as “poor” and the “systemic clearance (CL)” value was “high”.

These data come from publication PMC9697349, “Mouse Pharmacokinetics and In Vitro Metabolism of SH-11037 and SH-11008, Synthetic Homoisoflavonoids for Retinal Neovascularization” (Pharmaceutics, 2022).
